Results: article PMC5862408, “CCR2 antagonism leads to marked reduction in proteinuria and glomerular injury in murine models of focal segmental glomerulosclerosis (FSGS)” (PLoS ONE, 2018)
Where “and” joins values, the source holds several entries; their conditions need not be identical. Equal entries are not always repeated.

Assays:
[1] = system: diabetic nephropathy patients; conditions: 52 weeks of treatment; cited from earlier work
[2] = system: 5/6 nephrectomized 129X1/SvJ mice; experiment: 5/6 nephrectomy model (comparison with ET1/AT1 dual inhibitor); type: in vivo, mouse; conditions: for UAER / UACR: mean ± SEM; for UACR (mg/mg) at Week 1 / UACR (mg/mg) at Week 4 / UAER (mg/day) at Week 1 / UAER (mg/day) at Week 2 / UAER (mg/day) at Week 4: individual mice; for UACR: CCX872 90 mg/kg s.c. once daily, RAAS blocker 5 mg/kg orally once daily, Sparsentan 90 mg/kg orally twice daily
Description: (§1) Chemotaxis, calcium mobilization, and radio-ligand binding assays were conducted as previously described. Inhibition values (IC50) were calculated using non-linear regression with a one-site competition model (GraphPad Prism, GraphPad Software, La Jolla, CA). Urinary albumin was measured by ELISA (Bethyl Labs, Montgomery, TX). Urinary and serum creatinine was measured by LC-MS/MS at ChemoCentryx. The urinary albumin excretion rate (UAER) was calculated as micrograms per 24 h. Blood urea nitrogen (BUN) was measured by Antech Diagnostics (Morrisville, NC). Serum cystatin C was measured by ELISA (R&D Systems, Minneapolis, MN). The albumin to creatinine ratio (ACR) was calculated as micrograms of albumin per milligram of creatinine.
(§2) 5/6 nephrectomy mice on the 129X1/SvJ background were obtained from Jackson Laboratories, and were received at ChemoCentryx after the surgery was performed at JAX. Under isoflurane anesthesia, two-thirds of the left kidney mass was removed at 5–6 weeks of age. Then, after 7 to 10 days, a right unilateral nephrectomy was performed. The mice were fed a standard chow and had free access to water. Three weeks after the 5/6 nephrectomy, the mice were grouped to ensure a similar starting UAER in each treatment group. CCX872 or its vehicle were dosed subcutaneously once daily formulated in 1% HPMC. The RAAS blocker Candesartan (AK Scientific, Union City, CA) and its vehicle were dosed orally once daily at 5 mg/kg formulated in water. Sparsentan, the dual-acting receptor antagonist for endothelin (A type) and angiotensin II receptors (Type 1) was synthesized at ChemoCentryx and was dosed orally twice daily at 90 mg/kg formulated in 1% HPMC. The mice were housed individually in metabolic cages for quantitative collection of urinary albumin and creatinine.
Fig 4 Relative efficacy of CCR2, RAAS, and endothelin receptor blockade in the 5/6 nephrectomy model as assessed by UACR (mg/mg). Mice underwent a 5/6 nephrectomy as described in Methods. Three weeks post-surgery the mice were randomized to the indicated groups for the study period of 4 weeks. Urine was collected for measurement of UACR at the indicated time points, as described in Methods. Error bars represent standard error of the mean. N = 10/group at week 1, and N = 6 at week 4. p values were calculated between each drug-treated group and vehicle treated animals (asterisk), or between the CCX872/RAAS blocker combination and RAAS blocker alone (octothorpe) using student’s t-test (GraphPad Prism).

[3] = system: patients with FSGS; set-up: method as in announced by Retrophin; conditions: 8-week time point, 109 patients with FSGS, compared to irbesartan; ref announced by Retrophin; cited from earlier work
[4] = system: 5/6 nephrectomized 129X1/SvJ mice; experiment: 5/6 nephrectomy model (CCX872, RAAS blocker, combination); type: in vivo, mouse; conditions: for BUN / Serum Creatinine / Serum Cystatin C: terminal bleed; for UACR: CCX872 90 mg/kg s.c., RAAS blocker 5 mg/kg orally, once daily
Description: as §1
as §2, with “creatinine. […]” for “creatinine.”
Fig 3 CCX872 improves renal function as assessed by UACR, serum creatinine, BUN and cystatin C in 5/6 nephrectomized mice. Mice underwent a 5/6 nephrectomy as described in Methods. Three weeks post-surgery the mice were randomized to the groups indicated above for the study period of 4 weeks. Urine was collected for measurement of albumin and creatinine at the indicated time points, and UACR was calculated as described in Methods. Serum creatinine, BUN and Cystatin C were measured at time of terminal bleed after four weeks of treatment. Error bars represent standard error of the mean. N = 10/group, and N = 6 at week 3. p values were calculated between each drug-treated group and vehicle treated animals (asterisk), or between CCX872/RAAS blocker combination and RAAS blocker alone (octothorpe) using student’s t-test (GraphPad Prism).

[5] = system: Adriamycin challenged female Balb/c mice; experiment: Adriamycin induced nephropathy model; type: in vivo, mouse; conditions: for UAER: mean ± SEM
Description: Chemotaxis, calcium mobilization, and radio-ligand binding assays were conducted as previously described. Inhibition values (IC50) were calculated using non-linear regression with a one-site competition model (GraphPad Prism, GraphPad Software, La Jolla, CA). Urinary albumin was measured by ELISA (Bethyl Labs, Montgomery, TX). Urinary and serum creatinine was measured by LC-MS/MS at ChemoCentryx. The urinary albumin excretion rate (UAER) was calculated as micrograms per 24 h. Blood urea nitrogen (BUN) was measured by Antech Diagnostics (Morrisville, NC). Serum cystatin C was measured by ELISA (R&D Systems, Minneapolis, MN). The albumin to creatinine ratio (ACR) was calculated as micrograms of albumin per milligram of creatinine. These experiments were performed using female Balb/c mice (Jackson Laboratories, Bar Harbor, Maine). The mice were kept on standard chow and had free access to water. At age of 10 weeks, 7.5 mg/kg Adriamycin (Selleck Chemicals, Houston, TX) or saline (control) was injected via tail vein in isoflurane-anesthetized animals (day 0). CCX872 and/or vehicle were dosed subcutaneously once daily at 90 mg/kg formulated in 1% HPMC. The RAAS blocker Candesartan (AK Scientific, Union City, CA) and its vehicle were dosed orally once daily at 5 mg/kg, formulated in water. All dosing started 2 hours prior Adriamycin challenge. The mice were housed individually in metabolic cages for quantitative collection of urinary albumin and creatinine.  Fig 2 CCX872 improves renal function as assessed by UACR, serum creatinine and BUN in adriamycin challenged mice. Mice were challenged with Adriamycin as described in Methods. Test compound treatment was begun one hour prior to the Adriamycin challenge. Urine was collected for measurement of UAER (S3 Table) and creatinine at the indicated time points, and UACR was calculated as described in Methods. Serum creatinine and BUN were measured at time of terminal bleed after two weeks of treatment. Error bars represent standard error of the mean. N = 10/group at week 1, and N = 8 at week 2. p values were calculated on each treated group to vehicle treated animals using student’s t-test (GraphPad Prism).

[6] = system: Adriamycin challenged female Balb/c mice; experiment: Adriamycin induced nephropathy model; type: in vivo, mouse; conditions: individual mice
[7] = four-week time point, mean ± SEM
[8] = individual mice, listed as RAASi
[9] = terminal bleed, individual mice

Cc1cnc(C(=O)c2ncnc3[nH]ccc23)c(NS(=O)(=O)c2ccc(Cl)c(C(F)(F)F)c2)c1 [CCX140-B]
proteinuria [1]: decreased and sustained reduction of proteinuria

CCCCC1=NC2(CCCC2)C(=O)N1Cc1ccc(-c2ccccc2S(=O)(=O)Nc2noc(C)c2C)c(COCC)c1 [ET1/AT2 Dual Blocker, Sparsentan]
UAER ([2]; Week 1): 2.64 ± 0.75, p=0.036 mg/day | UAER ([2]; Week 2): 1.54 ± 2.15, p=0.01 mg/day | UAER ([2]; Week 4): 1.15 ± 1.47, p=0.001 mg/day | UACR (mg/mg) at Week 1 ([2]; listed as ET1/AT1 Dual): 1.081 mg/mg and 2.162 mg/mg and 2.864 mg/mg and 2.81 mg/mg and 3.047 mg/mg and 2.101 mg/mg and 2.214 mg/mg and 0.6904 mg/mg and 5.004 mg/mg | UACR (mg/mg) at Week 4 ([2]; listed as ET1/AT1 Dual): 2.388 mg/mg and 0.4973 mg/mg and 0.675 mg/mg and 0.2626 mg/mg and 0.5926 mg/mg and 2.095 mg/mg and 0.7726 mg/mg | UAER (mg/day) at Week 1 ([2]; listed as ET1/AT1 Dual): 0.8511 mg/day and 1.523 mg/day and 1.648 mg/day and 2.037 mg/day and 2.769 mg/day and 1.544 mg/day and 1.531 mg/day and 0.6428 mg/day and 5.6 mg/day | UAER (mg/day) at Week 2 ([2]; listed as ET1/AT1 Dual): 1.304 mg/day and 1.518 mg/day and 4.44 mg/day and 2.237 mg/day and 1.797 mg/day and 4.071 mg/day and 1.476 mg/day and 0.485 mg/day and 1.88 mg/day | UAER (mg/day) at Week 4 ([2]; listed as ET1/AT1 Dual): 1.009 mg/day and 1.391 mg/day and 0.6452 mg/day and 0.283 mg/day and 0.9648 mg/day and 0.8066 mg/day and 1.065 mg/day | UACR reduction vs vehicle ([2]; week one): 93.5% | UACR ([2]; week one): 2.44 ± 0.42 mg/mg | proteinuria (primary endpoint) [3]: statistically significant reduction in proteinuria as compared to irbesartan

CCOc1nc2cccc(C(=O)O)c2n1Cc1ccc(-c2ccccc2-c2nnn[nH]2)cc1 [RAAS Blocker, Candesartan]
UAER ([4]; Week 1, mean ± SEM): 8.27± 1.89, p=0.03 mg/day | UAER ([4]; Week 2, mean ± SEM): 3.62 ± 1.63, p=0.03 mg/day | UAER ([4]; Week 3, mean ± SEM): 3.32 ± 0.76, p<0.0001 mg/day | BUN [4, 7]: 247.0 ± 16.42 mg/dL | Serum Creatinine [4, 7]: 2.78 ± 0.27 µg/mL | UAER (mg/day) at Week 1 ([4]; individual mice): 2.15 mg/day and 4.699 mg/day and 15.5467 mg/day and 16.4212 mg/day and 15.0186 mg/day and 0.6806 mg/day and 9.638 mg/day and 3.148 mg/day and 4.462 mg/day and 10.9401 mg/day | UAER (mg/day) at Week 2 ([4]; individual mice): 0.7796 mg/day and 9.402 mg/day and 12.4793 mg/day and 1.127 mg/day and 0.5679 mg/day and 1.491 mg/day and 1.407 mg/day and 1.719 mg/day | UAER (mg/day) at Week 3 ([4]; individual mice): 5.801 mg/day and 4.3025 mg/day and 1.247 mg/day and 2.019 mg/day and 1.844 mg/day and 4.699 mg/day | UACR (mg/mg) at Week 1 [4, 8]: 5.748 mg/mg and 5.722 mg/mg and 28.9118 mg/mg and 21.9395 mg/mg and 21.4656 mg/mg and 1.415 mg/mg and 15.8208 mg/mg and 5.683 mg/mg and 7.266 mg/mg and 18.781 mg/mg | UACR (mg/mg) at Week 3 [4, 8]: 7.871 mg/mg and 8.029 mg/mg and 3.677 mg/mg and 3.863 mg/mg and 2.8993 mg/mg and 7.734 mg/mg | Serum Cystatin C ([4]; individual mice): 0.9323 µg/mL and 2.095 µg/mL and 2.201 µg/mL and 1.815 µg/mL and 2.053 µg/mL and 1.1273 µg/mL and 1.429 µg/mL and 1.517 µg/mL and 1.562 µg/mL and 2.118 µg/mL | BUN [4, 8]: 245 mg/dL and 215 mg/dL and 265 mg/dL and 205 mg/dL and 330 mg/dL and 255 mg/dL and 170 mg/dL and 210 mg/dL | Serum Creatinine [4, 8]: 2.46 µg/mL and 1.88 µg/mL and 2.93 µg/mL and 2.22 µg/mL and 2.77 µg/mL and 2.85 µg/mL and 2.01 µg/mL and 5.03 µg/mL and 2.87 µg/mL | Serum Cystatin C ([4]; mean ± SEM): 1.68 ± 0.14 µg/mL | UACR ([4]; week 1, mean ± SEM): 13.28 ± 2.928 mg/mg | UACR ([4]; week 3, mean ± SEM): 5.679 ± 0.99 mg/mg | UAER ([5]; Week 1): 39.46 ± 14.14, p=0.16 mg/day | UAER ([5]; Week 2): 66.87 ± 23.99, p=0.52 mg/day | BUN [5, 9]: 100 mg/dL and 80 mg/dL and 65 mg/dL and 70 mg/dL and 85 mg/dL and 125 mg/dL and 75 mg/dL | Serum Creatinine [5, 9]: 0.927 µg/mL and 1.08 µg/mL and 1.05 µg/mL and 1.06 µg/mL and 0.956 µg/mL and 1.21 µg/mL and 0.91 µg/mL and 1.09 µg/mL and 1.14 µg/mL and 1.35 µg/mL | UAER ([2]; Week 1): 9.38 ± 7.70, p=0.27 mg/day | UAER ([2]; Week 2): 7.72 ± 6.37, p=0.06 mg/day | UAER ([2]; Week 4): 1.74 ± 2.49, p=0.02 mg/day | UACR (mg/mg) at Week 1 [2]: 0.2531 mg/mg and 1.465 mg/mg and 2.285 mg/mg and 73.9074 mg/mg and 1.319 mg/mg and 7.089 mg/mg and 0.4551 mg/mg and 1.07 mg/mg | UACR (mg/mg) at Week 4 [2]: 0.751 mg/mg and 2.804 mg/mg and 0.2303 mg/mg and 0.9337 mg/mg and 0.4088 mg/mg and 0.9456 mg/mg | UAER (mg/day) at Week 1 [2]: 0.1519 mg/day and 0.9615 mg/day and 2.137 mg/day and 63.0549 mg/day and 1.2792 mg/day and 6.0897 mg/day and 0.4778 mg/day and 0.9119 mg/day | UAER (mg/day) at Week 2 [2]: 0.4333 mg/day and 5.515 mg/day and 1.464 mg/day and 44.8051 mg/day and 0.7469 mg/day and 7.145 mg/day and 0.2974 mg/day and 1.3574 mg/day | UAER (mg/day) at Week 4 [2]: 1.13 mg/day and 3.156 mg/day and 0.298 mg/day and 1.221 mg/day and 0.2117 mg/day and 1.028 mg/day | UACR ([2]; week one): 10.98 ± 9.02 mg/mg | UACR (mg/mg) at Week 1 [6]: 20.0842 mg/mg and 22.2965 mg/mg and 25.3406 mg/mg and 40.1693 mg/mg and 41.555 mg/mg and 302.958 mg/mg and 55.6444 mg/mg and 187.49 mg/mg and 117.091 mg/mg and 7.322 mg/mg | UACR (mg/mg) at Week 2 [6]: 56.294 mg/mg and 76.9257 mg/mg and 96.611 mg/mg and 232.005 mg/mg and 248.91 mg/mg and 18.6549 mg/mg and 102.568 mg/mg and 35.7503 mg/mg | UAER (mg/day) at Week 1 [6]: 10.1862 mg/day and 10.9954 mg/day and 11.0332 mg/day and 14.9575 mg/day and 18.3446 mg/day and 113.025 mg/day and 29.5364 mg/day and 126.741 mg/day and 54.0627 mg/day and 5.677 mg/day | UAER (mg/day) at Week 2 [6]: 28.1393 mg/day and 36.5424 mg/day and 35.6435 mg/day and 176.989 mg/day and 173.035 mg/day and 14.0491 mg/day and 53.4766 mg/day and 17.1116 mg/day
